Results: DBAASP
≈ marks a conversion by molar mass, not a printed value. Where “and” joins values, the source holds several entries; their conditions need not be identical. Equal entries are not always repeated.

What was measured:
Test in all cases: ≥ marks a high value that may be exact or a test limit, other limits are often not marked, values filed in µg/mL are converted to µM
[1] = test system: Acinetobacter johnsonii NCDC 0072
[2] = test system: Escherichia coli D31
[3] = test system: Pseudomonas aeruginosa NCDC 0105
[4] = test system: Pseudomonas aeruginosa ATCC 27853
[5] = test system: Salmonella enterica subsp. enterica serovar Typhimurium ATCC 14028
[6] = test system: Salmonella enterica subsp. enterica serovar Typhimurium ATCC 700931
[7] = test system: Klebsiella pneumoniae ATCC 700603
[8] = test system: Staphylococcus aureus ATCC 35556
[9] = test system: Listeria monocytogenes ATCC 19111
[10] = test system: Bacillus cereus NCDC 0240
[11] = test system: Bacillus subtilis ATCC 6051
[12] = test system: Escherichia coli MTCC 0723
[13] = test system: Acinetobacter baumannii ATCC 19606
[14] = test system: Pseudomonas aeruginosa PAO1
[15] = test system: Staphylococcus aureus NCDC 0111
[16] = test system: Staphylococcus aureus ATCC 29213
[17] = test system: Escherichia coli HB101
[18] = test system: Escherichia coli ATCC 25922
[19] = test system: Salmonella enterica subsp. enterica serovar Infantis
[20] = test system: Escherichia coli MC1041
[21] = test system: Escherichia coli JW0013
[22] = test system: Salmonella typhimurium SL1344
[23] = test system: Escherichia coli JW2778 ΔygdD
[24] = test system: Salmonella enterica subsp. enterica serovar Newport
[25] = test system: Escherichia coli JJ2489
[26] = test system: Salmonella enterica serovar Tennessee
[27] = test system: Salmonella enterica subsp. enterica serovar Enteritidis MH91989
[28] = test system: Escherichia coli J2210
[29] = test system: Escherichia coli
[30] = test system: Escherichia coli JW0368 ΔsbmA
[31] = test system: Escherichia coli NCTC 10418
[32] = test system: Candida albicans ATCC 90028
[33] = test system: Escherichia coli IS37#
[34] = test system: Pseudomonas aeruginosa CMCCB 1010
[35] = test system: Candida albicans ATCC 2002
[36] = test system: Escherichia coli IS117#
[37] = test system: Pseudomonas aeruginosa IS350#
[38] = test system: Staphylococcus aureus IS37#
[39] = test system: Candida albicans NCYC 1467
[40] = test system: Enterobacter cloacae ATCC 13047
[41] = test system: Staphylococcus aureus ATCC 25923
[42] = test system: Klebsiella pneumoniae IS59#
[43] = test system: Staphylococcus aureus NCTC 10788
[44] = test system: Candida parapsilosis ATCC 22019
[45] = test system: Staphylococcus aureus IS10#
[46] = test system: Shigella dysenteriae
[47] = test system: Enterococcus faecalis ATCC 29212
[48] = test system: Escherichia coli IS218#
[49] = test system: Staphylococcus epidermidis KCTC 1917
[50] = test system: Staphylococcus aureus USA 100
[51] = test system: Staphylococcus aureus NCTC 12981
[52] = test system: Pseudomonas aeruginosa KCTC 1637
[53] = test system: Escherichia coli KCTC 1682
[54] = test system: Staphylococcus aureus KCTC 1621

## CC[C@H](C)[C@H](NC(=O)[C@H](Cc1c[nH]c2ccccc12)NC(=O)[C@@H](NC(=O)[C@H](Cc1c[nH]c2ccccc12)NC(=O)[C@@H]1CCCN1C(=O)[C@@H](NC(=O)[C@H](C)N)[C@@H](C)CC)[C@@H](C)CC)C(=O)N[C@@H](Cc1c[nH]c2ccccc12)C(=O)N[C@@H](CCCN=C(N)N)C(=O)N[C@@H](CC(C)C)C(=O)N[C@@H](CC(C)C)C(=O)N[C@@H](CCCN=C(N)N)C(=O)N[C@@H](CCCCN)C(=O)NCC(=O)O [AIPWIWIWRLLRKG]
[1]
  MIC: 12.5 µM (≈ 22.6 µg/mL)
[2]
  MIC: 7.5 µM (≈ 13.6 µg/mL)
[3]
  MIC: 3 µM (≈ 5.42 µg/mL)
[4]
  MIC: 0.4 µM (≈ 0.723 µg/mL)
[5]
  MIC: 6 µM (≈ 10.8 µg/mL)
[6]
  MIC: 15 µM (≈ 27.1 µg/mL)
[7]
  MIC: > 15 µM
[8]
  MIC: 3.75 µM (≈ 6.78 µg/mL)
[9]
  MIC: 12.5 µM (≈ 22.6 µg/mL)
[10]
  MIC: 12.5 µM (≈ 22.6 µg/mL)
[11]
  MIC: 0.23 µM (≈ 0.416 µg/mL)
[12]
  MIC: 6 µM (≈ 10.8 µg/mL)
[13]
  MIC: 3.75 µM (≈ 6.78 µg/mL)
[14]
  MIC: 15 µM (≈ 27.1 µg/mL)
[15]
  MIC: 0.4 µM (≈ 0.723 µg/mL)
[16]
  MIC: 0.4 µM (≈ 0.723 µg/mL)

## CC[C@H](C)[C@H](NC(=O)[C@H](CCCN=C(N)N)NC(=O)[C@@H](N)CCCN=C(N)N)C(=O)N[C@@H](CCCN=C(N)N)C(=O)N1CCC[C@H]1C(=O)N[C@@H](CCCN=C(N)N)C(=O)N1CCC[C@H]1C(=O)N1CCC[C@H]1C(=O)N[C@@H](CCCN=C(N)N)C(=O)N[C@@H](CC(C)C)C(=O)N1CCC[C@H]1C(=O)N[C@@H](CCCN=C(N)N)C(=O)N1CCC[C@H]1C(=O)N[C@@H](CCCN=C(N)N)C(=O)N1CCC[C@H]1C(=O)N[C@@H](CS)C(=O)O [RRIRPRPPRLPRPRPC]
[17]
  MIC: 11.3 µM (≈ 22.9 µg/mL)
[18]
  MIC: 11.3 µM (≈ 22.9 µg/mL)

## CC[C@H](C)[C@H](NC(=O)[C@@H]1CCCN1C(=O)[C@H](CCCN=C(N)N)NC(=O)[C@@H]1CCCN1C(=O)[C@@H]1CCCN1C(=O)[C@@H](NC(=O)[C@@H]1CCCN1C(=O)[C@H](CCCN=C(N)N)NC(=O)[C@@H]1CCCN1C(=O)[C@H](CC(C)C)NC(=O)[C@H](Cc1ccc(O)cc1)NC(=O)[C@H](CO)NC(=O)CNC(=O)[C@H](CCCCN)NC(=O)[C@H](CC(=O)O)NC(=O)[C@@H](N)C(C)C)[C@@H](C)O)C(=O)N[C@@H](Cc1ccc(O)cc1)C(=O)N[C@@H](CC(N)=O)C(=O)N[C@@H](CCCN=C(N)N)C(=O)N[C@@H](CC(N)=O)C(=O)O [VDKGSYLPRPTPPRPIYNRN]
[19]
  MIC: 0.6 µM (≈ 1.4 µg/mL)
[20]
  MIC: 0.416 µM (≈ 0.974 µg/mL)
[21]
  MIC: 0.15 µM (≈ 0.351 µg/mL)
[22]
  MIC: 1.2 µM (≈ 2.81 µg/mL)
[23]
  MIC: 0.6 µM (≈ 1.4 µg/mL)
[24]
  MIC: 0.416 µM (≈ 0.974 µg/mL)
[25]
  MIC: 0.6 µM (≈ 1.4 µg/mL)
[26]
  MIC: 0.6 µM (≈ 1.4 µg/mL)
[27]
  MIC: 1.2 µM (≈ 2.81 µg/mL)
[28]
  MIC: 0.786 µM (≈ 1.84 µg/mL)
[29]
  MIC: > 0.416 µM and 0.6 µM
[30]
  MIC: 2.4 µM (≈ 5.62 µg/mL)

## CC[C@H](C)[C@H](NC(=O)CNC(=O)[C@H](CO)NC(=O)[C@H](CC(C)C)NC(=O)[C@H](CC(C)C)NC(=O)CN)C(=O)N[C@@H](CC(C)C)C(=O)NCC(=O)N[C@@H](C)C(=O)NCC(=O)N[C@@H](CCCCN)C(=O)N[C@@H](CCCCN)C(=O)N[C@H](C(=O)N[C@H](C(=O)N[C@H]1CSSC[C@@H](C(=O)O)NC(=O)[C@H](CC(C)C)NC(=O)CNC(=O)[C@H](CO)NC(=O)[C@H](CC(C)C)NC(=O)CNC1=O)C(C)C)[C@@H](C)CC [GLLSGILGAGKKIVCGLSGLC]
[31]
  MIC: ≥ 64 µM
[32]
  MIC: 2.55 µM (≈ 4.99 µg/mL)
[33]
  MIC: 2.55 µM (≈ 4.99 µg/mL)
[34]
  MIC: 1.28 µM (≈ 2.5 µg/mL)
[35]
  MIC: 0.51 µM (≈ 0.999 µg/mL)
[36]
  MIC: 5.1 µM (≈ 9.99 µg/mL)
[4]
  MIC: 2.55 µM (≈ 4.99 µg/mL)
[7]
  MIC: 1.28 µM (≈ 2.5 µg/mL)
[37]
  MIC: 5.1 µM (≈ 9.99 µg/mL)
[38]
  MIC: 10.2 µM (≈ 20 µg/mL)
[39]
  MIC: 32 µM (≈ 62.6 µg/mL)
[40]
  MIC: 5.1 µM (≈ 9.99 µg/mL)
[41]
  MIC: 2.55 µM (≈ 4.99 µg/mL)
[42]
  MIC: 5.1 µM (≈ 9.99 µg/mL)
[18]
  MIC: 5.1 µM (≈ 9.99 µg/mL)
[43]
  MIC: 32 µM (≈ 62.6 µg/mL)
[44]
  MIC: 1.28 µM (≈ 2.5 µg/mL)
[45]
  MIC: 10.2 µM (≈ 20 µg/mL)
[46]
  MIC: 2.55 µM (≈ 4.99 µg/mL)
[47]
  MIC: 5.1 µM (≈ 9.99 µg/mL)
[48]
  MIC: 2.55 µM (≈ 4.99 µg/mL)

## NC(=O)[C@H](CCCN=C(N)N)NC(=O)[C@H](Cc1c[nH]c2ccccc12)NC(=O)[C@H](CCCN=C(N)N)NC(=O)[C@@H](N)Cc1c[nH]c2ccccc12 [WRWR]
[49]
  MIC: 11.4 µM (≈ 7.99 µg/mL)
[31]
  MIC: ≥ 182 µM
[50]
  MIC: ≥ 50 µM
[51]
  MIC: ≥ 182 µM
[52]
  MIC: ≥ 45.5 µM
[53]
  MIC: ≥ 45.5 µM
[54]
  MIC: ≥ 45.5 µM
